Experimental data from patent publication US8183351B2, “Avermectin derivatives” (Bayer Cropscience AG, priority 2006, dated 2012).

Assays:
Assay type in all cases: in vivo
[1] = system: larvae of the mustard beetle (Phaedon cochleariae); test: Phaedon test (PHAECO spray treatment); settings: 4 ppm active compound, sprayed Chinese cabbage discs
Method: Phaedon Test (PHAECO Spray Treatment)
• Solvents: 78 parts by weight of acetone • 1.5 parts by weight of dimethylformamide • Emulsifier: 0.5 part by weight of alkylaryl polyglyycol ether
After the desired period of time, the effect in % is determined. 100% means that all beetle larvae have been killed; 0% means that none of the beetle larvae have been killed.

[2] = system: Lucilia cuprina larvae; test: Lucilia cuprina test (LUCICU); settings: treated horsemeat
Method: Lucilia cuprina Test (LUCICU)
Description for Examples A and B
(§1) • Solvent: Dimethyl sulphoxide
To produce a suitable preparation of active compound, 1 part by weight of active compound is mixed with the stated amount of water and the concentrate is diluted with water to the desired concentration.
Containers containing horsemeat treated with the active compound preparation of the desired concentration are populated with Lucilia cuprina larvae.
After the desired period of time, the kill in % is determined. 100% means that all larvae have been killed; 0% means that none of the larvae have been killed.
(§2) In this test, for example, the following compounds of the preparation examples show good activity: see table

[3] = system: unfed adult fleas (Ctenocephalides felis); test: Ctenocephalides felis; oral (CTECFE); settings: Example J; 4 ppm active compound in citrated cattle blood, oral uptake
Method: Ctenocephalides felis; Oral (CTECFE)
as §1
To produce a suitable preparation of active compound, 1 part by weight of active compound is mixed with the stated amount of solvent. Part of the concentrate is diluted with citrated cattle blood, and the desired concentration is prepared.
20 unfed adult fleas (Ctenocephalides felis) are placed into a chamber whose top and bottom ends are closed with gauze. A metal cylinder whose bottom end is closed with parafilm is placed onto the chamber. The cylinder contains the blood/active compound preparation, which can be taken up by the fleas through the parafilm membrane. The blood is warmed to 37° C., but the flea chamber is at room temperature.
After the desired period of time, the kill in % is determined. 100% means that all fleas have been killed; 0% means that none of the fleas have been killed.
as §2

[4] = system: caterpillars of the army worm (Spodoptera frugiperda); test: Spodoptera frugiperda test (SPODFR spray treatment); settings: Example I; 4 ppm active compound; sprayed maize leaf discs
Method: Spodoptera frugiperda Test (SPODFR Spray Treatment)
• Solvents: 78.0 parts by weight of acetone • 1.5 parts by weight of dimethylformamide • Emulsifier: 0.5 part by weight of alkylaryl polyglyycol ether
After the desired period of time, the effect in % is determined. 100% means that all caterpillars have been killed; 0% means that none of the caterpillars have been killed.

[5] = system: greenhouse red spider mite (Tetranychus urticae); test: Tetranychus test, OP-resistant (TETRUR spray treatment); settings: sprayed bean leaf discs
Method: Tetranychus Test, OP-resistant (TETRUR Spray Treatment)
• Solvents: 78 parts by weight of acetone • 1.5 parts by weight of dimethylformamide • Emulsifier: 0.5 part by weight of alkylaryl polyglycol ether
To produce a suitable preparation of active compound, 1 part by weight of active compound is mixed with the stated amounts of solvents and emulsifier, and the concentrate is diluted with emulsifier-containing water to the desired concentration.
Discs of bean leaves (Phaseolus vulgaris) heavily infested by all stages of the greenhouse red spider mite (Tetranychus urticae) are sprayed with a preparation of active compound of the desired concentration.
After the desired period of time, the effect in % is determined 100% means that all spider mites have been killed; 0% means that none of the spider mites have been killed.
as §2

[6] = system: adult Musca domestica; test: Musca domestica test (MUSCDO); settings: Example C, treated sponge
Method: Musca domestica Test (MUSCDO)
as §1
To produce a suitable preparation of active compound, 1 part by weight of active compound is mixed with the stated amount of water, and the concentrate is diluted with water to the desired concentration.
Containers containing a sponge treated with the preparation of active compound of the desired concentration are populated with adult Musca domestica.
After the desired period of time, the kill in % is determined. 100% means that all flies have been killed; 0% means that none of the flies have been killed.
as §2

[7] = Example A, 0.8 ppm active compound
[8] = Example H, 0.032 ppm active compound

## CCC(C)C1OC2(C=CC1C)CC1CC(CC=C(C)C(OC3CC(OC)C(OC(=O)C(C)NC(C)=O)C(C)O3)C(C)C=CC=C3COC4C(O)C(C)=CC(C(=O)O1)C34O)O2 (mixture of isomers) [Example 54]
[1]; Example G
  Kill rate in % after 7 days: 100%
[2]; [7]
  Kill rate in % after 2 days: 80%

## COC1CC(OC2C(C)=CCC3CC(CC4(CCC(C)C(C(C)C)O4)O3)OC(=O)C3C=C(C)C(O)C4OCC(=CC=CC2C)C34O)OC(C)C1OC(C)=O [4′-O-acetyl-4′-O-de(2,6-dideoxy-3-O-methyl-α-L-arabino-hexopyranosyl)-5-O-demethyl-25-de(1-methylpropyl)-22,23-dihydro-25-(1-methylethyl)-avermectin A1a, reference compound]
[3]
  Kill rate in % after 2 days: 20%
[4]
  Kill rate in % after 5 days: 0%
[5]; [8]
  Kill rate in % after 5 days: 0%
[1]; Example G
  Kill rate in % after 7 days: 0%

## CC[C@H](C)[C@H]1OC2(C=C[C@@H]1C)C[C@@H]1C[C@@H](C/C=C(\C)[C@@H](OC3CC(OC)C(OC(=O)C4CC4)C(C)O3)[C@@H](C)/C=C/C=C3\CO[C@@H]4[C@H](O)C(C)=CC(C(=O)O1)[C@]34O)O2 (stereo partly drawn) [Example 1, 4′-O-(cyclopropylcarbonyl)-avermectin B1 monosaccharide]
[1]; Example D
  Kill rate in % after 7 days: 90%
[2]; [7]
  Kill rate in % after 2 days: 100%

## CC[C@H](C)[C@H]1OC2(C=C[C@@H]1C)C[C@@H]1C[C@@H](C/C=C(\C)[C@@H](OC3CC(OC)C(OC(=O)c4ccccc4)C(C)O3)[C@@H](C)/C=C/C=C3\CO[C@@H]4[C@H](O)C(C)=CC(C(=O)O1)[C@]34O)O2 (stereo partly drawn) [Example 2]
[5]; Example F, 0.00128 ppm active compound
  Kill rate in % after 5 days: 80%

## CC[C@H](C)[C@H]1OC2(C=C[C@@H]1C)C[C@@H]1C[C@@H](C/C=C(\C)[C@@H](OC3CC(OC)C(OC(=O)Cc4cccs4)C(C)O3)[C@@H](C)/C=C/C=C3\CO[C@@H]4[C@H](O)C(C)=CC(C(=O)O1)[C@]34O)O2 (stereo partly drawn) [Example 13]
[6]; 0.8 ppm active compound
  Kill rate in % after 2 days: 50%

## CC[C@H](C)[C@H]1OC2(CC[C@@H]1C)C[C@@H]1C[C@@H](C/C=C(\C)[C@@H](OC3CC(OC)C(OC(=O)Cn4ccnn4)C(C)O3)[C@@H](C)/C=C/C=C3\CO[C@@H]4[C@H](O)C(C)=CC(C(=O)O1)[C@]34O)O2 (stereo partly drawn) [Example 18]
[1]; Example G
  Kill rate in % after 7 days: 100%
[2]; Example B, 0.16 ppm active compound
  Kill rate in % after 2 days: 100%

## CC[C@H](C)[C@H]1OC2(C=C[C@@H]1C)C[C@@H]1C[C@@H](C/C=C(\C)[C@@H](OC3CC(OC)C(OC(=O)C(C)(C)n4cncn4)C(C)O3)[C@@H](C)/C=C/C=C3\CO[C@@H]4[C@H](O)C(C)=CC(C(=O)O1)[C@]34O)O2 (stereo partly drawn) [Example 20]
[1]; Example D
  Kill rate in % after 7 days: 80%
[2]; [7]
  Kill rate in % after 2 days: 100%

## CC[C@H](C)[C@H]1OC2(CC[C@@H]1C)C[C@@H]1C[C@@H](C/C=C(\C)[C@@H](OC3CC(OC)C(OC(=O)C(C)(C)n4cncn4)C(C)O3)[C@@H](C)/C=C/C=C3\CO[C@@H]4[C@H](O)C(C)=CC(C(=O)O1)[C@]34O)O2 (stereo partly drawn) [Example 23]
[5]; [8]
  Kill rate in % after 5 days: 70%
[1]; Example G
  Kill rate in % after 7 days: 100%

## CC[C@H](C)[C@H]1OC2(C=C[C@@H]1C)C[C@@H]1C[C@@H](C/C=C(\C)[C@@H](OC3CC(OC)C(OC(=O)Cc4sccc4C)C(C)O3)[C@@H](C)/C=C/C=C3\CO[C@@H]4[C@H](O)C(C)=CC(C(=O)O1)[C@]34O)O2 (stereo partly drawn) [Example 27]
[2]; [7]
  Kill rate in % after 2 days: 100%

## CC[C@H](C)[C@H]1OC2(C=C[C@@H]1C)C[C@@H]1C[C@@H](C/C=C(\C)[C@@H](OC3CC(OC)C(OC(=O)C(C)n4cccn4)C(C)O3)[C@@H](C)/C=C/C=C3\CO[C@@H]4[C@H](O)C(C)=CC(C(=O)O1)[C@]34O)O2 (stereo partly drawn) [Example 48]
[6]; 100 ppm active compound
  Kill rate in % after 2 days: 100%
[4]
  Kill rate in % after 5 days: 100%
[1]; Example G
  Kill rate in % after 7 days: 100%
[2]; [7]
  Kill rate in % after 2 days: 100%

## CC[C@H](C)[C@H]1OC2(C=C[C@@H]1C)C[C@@H]1C[C@@H](C/C=C(\C)[C@@H](OC3CC(OC)C(OC(=O)CN4CCCCC4)C(C)O3)[C@@H](C)/C=C/C=C3\CO[C@@H]4[C@H](O)C(C)=CC(C(=O)O1)[C@]34O)O2 (stereo partly drawn) [Example 50]
[6]; 100 ppm active compound
  Kill rate in % after 2 days: 90%
[3]
  Kill rate in % after 2 days: 50%
[4]
  Kill rate in % after 5 days: 100%
[1]; Example G
  Kill rate in % after 7 days: 83%
[2]; [7]
  Kill rate in % after 2 days: 100%

## CC[C@H](C)[C@H]1OC2(C=C[C@@H]1C)C[C@@H]1C[C@@H](C/C=C(\C)[C@@H](OC3CC(OC)C(OC(=O)C(C)N4CCOCC4)C(C)O3)[C@@H](C)/C=C/C=C3\CO[C@@H]4[C@H](O)C(C)=CC(C(=O)O1)[C@]34O)O2 (stereo partly drawn) [Example 52, 4′-O-(2-morpholin-4-ylpropanoyl)-avermectin B1 monosaccharide]
[3]
  Kill rate in % after 2 days: 50%
[4]
  Kill rate in % after 5 days: 100%
[1]; Example G
  Kill rate in % after 7 days: 100%
[2]; [7]
  Kill rate in % after 2 days: 100%

## CC[C@H](C)[C@H]1OC2(C=C[C@@H]1C)C[C@@H]1C[C@@H](C/C=C(\C)[C@@H](OC3CC(OC)C(OC(=O)CN(C)C(=O)OC(C)(C)C)C(C)O3)[C@@H](C)/C=C/C=C3\CO[C@@H]4[C@H](O)C(C)=CC(C(=O)O1)[C@]34O)O2 (stereo partly drawn) [Example 55]
[6]; 100 ppm active compound
  Kill rate in % after 2 days: 90%
[2]; [7]
  Kill rate in % after 2 days: 90%

## CC[C@H](C)[C@H]1OC2(C=C[C@@H]1C)C[C@@H]1C[C@@H](C/C=C(\C)[C@@H](OC3CC(OC)C(OC(=O)CN(C)C)C(C)O3)[C@@H](C)/C=C/C=C3\CO[C@@H]4[C@H](O)C(C)=CC(C(=O)O1)[C@]34O)O2 (stereo partly drawn) [Example 57]
[6]; 100 ppm active compound
  Kill rate in % after 2 days: 90%
[3]
  Kill rate in % after 2 days: 40%
[1]; Example G
  Kill rate in % after 7 days: 100%
[2]; [7]
  Kill rate in % after 2 days: 100%

## CC[C@H](C)[C@H]1OC2(C=C[C@@H]1C)C[C@@H]1C[C@@H](C/C=C(\C)[C@@H](OC3CC(OC)C(OC(=O)Cc4nn(C)c(=O)n4C)C(C)O3)[C@@H](C)/C=C/C=C3\CO[C@@H]4[C@H](O)C(C)=CC(C(=O)O1)[C@]34O)O2 (stereo partly drawn) [Example 60]
[6]; 100 ppm active compound
  Kill rate in % after 2 days: 100%
[3]
  Kill rate in % after 2 days: 50%
[1]; Example G
  Kill rate in % after 7 days: 100%
[2]; [7]
  Kill rate in % after 2 days: 90%

## CCC(C)C1OC2(C=CC1C)CC1CC(CC=C(C)C(OC3CC(OC)C(OC(=O)C4C(C=C(Cl)Cl)C4(C)C)C(C)O3)C(C)C=CC=C3COC4C(O)C(C)=CC(C(=O)O1)C34O)O2 (stereo not drawn) [Example 89]
[6]; 100 ppm active compound
  Kill rate in % after 2 days: 100%

## CCC(C)C1OC2(C=CC1C)CC1CC(CC=C(C)C(OC3CC(OC)C(OC(=O)C(=NOC)c4ccc(Cl)cc4Cl)C(C)O3)C(C)C=CC=C3COC4C(O)C(C)=CC(C(=O)O1)C34O)O2 (stereo not drawn) [Example 90]
[6]; 100 ppm active compound
  Kill rate in % after 2 days: 100%

## CC[C@H](C)[C@H]1OC2(C=C[C@@H]1C)C[C@@H]1C[C@@H](C/C=C(\C)[C@@H](OC3CC(OC)C(OC(=O)Cc4nc(-c5cccs5)sc4C)C(C)O3)[C@@H](C)/C=C/C=C3\CO[C@@H]4[C@H](O)C(C)=CC(C(=O)O1)[C@]34O)O2 (stereo partly drawn) [Example 91]
[6]; 100 ppm active compound
  Kill rate in % after 2 days: 90%

## CC[C@H](C)[C@H]1OC2(C=C[C@@H]1C)C[C@@H]1C[C@@H](C/C=C(\C)[C@@H](OC3CC(OC)C(OC(=O)Cc4ccc(Cl)cc4)C(C)O3)[C@@H](C)/C=C/C=C3\CO[C@@H]4[C@H](O)C(C)=CC(C(=O)O1)[C@]34O)O2 (stereo partly drawn) [Example 94]
[6]; 100 ppm active compound
  Kill rate in % after 2 days: 80%

## CC[C@H](C)[C@H]1OC2(C=C[C@@H]1C)C[C@@H]1C[C@@H](C/C=C(\C)[C@@H](OC3CC(OC)C(OC(=O)C(C)C)C(C)O3)[C@@H](C)/C=C/C=C3\CO[C@@H]4[C@H](O)C(C)=CC(C(=O)O1)[C@]34O)O2 (stereo partly drawn) [Example 98, 4′-O-Isobutyryl-avermectin B1 monosaccharide]
[2]; [7]
  Kill rate in % after 2 days: 95%
